Test results: US7723329B2, “Substituted-3-sulfonylindazole derivatives as 5-hydroxytryptamine-6 ligands” (Wyeth LLC, priority 2005, dated 2010)
Structures can show the parent of a compound that is named as a salt.

System: not given
Assay: not given
Details: not given

Structure (SMILES)	melting point
NCCOc1ccc2[nH]nc(S(=O)(=O)c3ccccc3)c2c1 (as salt: hydrochloride) [Example 13, 2-(3-Benzenesulfonyl-1H-indazol-5-yloxy)-ethylamine]	> 300 °C
CCNCCOc1ccc2c(c1)c(S(=O)(=O)c1cccc3ccccc13)nn2C (as salt: hydrochloride) [Example 44, Ethyl-{2-[1-methyl-3-(naphthalene-1-sulfonyl)-1H-indazol-5-yloxy]-ethyl}-amine]	276 to 277 °C (dec.)

Biological target: T1, human cloned 5-HT6 receptors (Homo sapiens, UniProt P50406)
T1 construct: expressed in transfected cells; host or cells: HeLa cells
T1 sequence (P50406 whole entry): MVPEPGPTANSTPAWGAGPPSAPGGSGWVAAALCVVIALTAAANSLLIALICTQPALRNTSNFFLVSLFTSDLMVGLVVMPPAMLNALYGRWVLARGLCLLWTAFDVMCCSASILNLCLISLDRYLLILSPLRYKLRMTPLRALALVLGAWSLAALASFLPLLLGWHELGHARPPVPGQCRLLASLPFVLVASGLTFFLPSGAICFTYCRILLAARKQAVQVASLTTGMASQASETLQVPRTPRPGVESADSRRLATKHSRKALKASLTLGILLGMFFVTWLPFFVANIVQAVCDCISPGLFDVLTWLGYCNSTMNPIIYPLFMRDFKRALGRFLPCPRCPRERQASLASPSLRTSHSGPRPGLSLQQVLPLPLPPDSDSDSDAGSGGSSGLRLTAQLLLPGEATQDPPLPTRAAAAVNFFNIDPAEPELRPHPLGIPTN
Assay: 5-HT6 binding affinity, [3H]-LSD displacement
Details: membranes of Hela cells expressing human cloned 5-HT6 receptors; [3H]-LSD 3.0 nM; 120 minutes at room temperature

Structure (SMILES)	Ki
Cn1nc(S(=O)(=O)c2cccc3ccccc23)c2cccc(OCCN3CCCCC3)c21 [Example 99]	0.01 to 10 nM
O=S(=O)(c1ccccc1)c1n[nH]c2ccc(OCCNC3CC3)cc12 [Example 8, [2-(3-Benzenesulfonyl-1H-indazol-5-yloxy)-ethyl]-cyclopropyl-amine]	26 to 35 nM
CCNCCOc1ccc2[nH]nc(S(=O)(=O)c3ccccc3)c2c1 [Example 4, [2-(3-Benzenesulfonyl-1H-indazol-5-yloxy)-ethyl]-ethyl-amine]	0.01 to 10 nM
Cn1nc(S(=O)(=O)c2cccc3ccccc23)c2cc(OCCN3CCCC3)ccc21 [Example 46, 1-Methyl-3-(naphthalene-1-sulfonyl)-5-(2-pyrrolidin-1-yl-ethoxy)-1H-indazole]	0.01 to 10 nM
CCNCCCCOc1ccc2[nH]nc(S(=O)(=O)c3cccc4ccccc34)c2c1 [Example 63]	0.01 to 10 nM
CC(C)NCCCOc1ccc2[nH]nc(S(=O)(=O)c3cccc4ccccc34)c2c1 [Example 22, Isopropyl-{3-[3-(naphthalene-1-sulfonyl)-1H-indazol-5-yloxy]-propyl}-amine]	0.01 to 10 nM
CC(C)NCCOc1ccc2[nH]nc(S(=O)(=O)c3cccc4ccccc34)c2c1 [Example 28, Isopropyl-{2-[3-(naphthalene-1-sulfonyl)-1H-indazol-5-yloxy]-ethyl}-amine]	0.01 to 10 nM
O=S(=O)(c1ccccc1)c1n[nH]c2c(OCCN3CCCCC3)cccc12 [Example 93]	0.01 to 10 nM
O=S(=O)(c1cccc2ccccc12)c1n[nH]c2ccc(OCCCN3CCCC3)cc12 [Example 23, 3-(Naphthalene-1-sulfonyl)-5-(3-pyrrolidin-1-yl-propoxy)-1H-indazole]	0.01 to 10 nM
O=S(=O)(c1cccc2ccccc12)c1nn(Cc2cccc(Cl)c2)c2c(OCCCN3CCCCC3)cccc12 [Example 132]	26 to 35 nM
CN(C)CCCCOc1ccc2[nH]nc(S(=O)(=O)c3cccc4ccccc34)c2c1 [Example 64]	0.01 to 10 nM
CNCCOc1ccc2c(c1)c(S(=O)(=O)c1cccc3ccccc13)nn2C [Example 40, Methyl-{2-[1-methyl-3-(naphthalene-1-sulfonyl)-1H-indazol-5-yloxy]-ethyl}-amine]	0.01 to 10 nM
NCCCOc1ccc2[nH]nc(S(=O)(=O)c3cccc4ccccc34)c2c1 [Example 26, 3-[3-(Naphthalene-1-sulfonyl)-1H-indazol-5-yloxy]-propylamine]	0.01 to 10 nM
CCN(CC)CCOc1cc(F)cc2c(S(=O)(=O)c3cccc4ccccc34)nn(Cc3cccc(Cl)c3)c12 [Example 110]	> 45 nM
O=S(=O)(c1cccc2ccccc12)c1nn(Cc2cccc(Cl)c2)c2c(OCCN3CCCCC3)cc(F)cc12 [Example 111]	> 45 nM
COc1cc(OCCN(C)C)c2[nH]nc(S(=O)(=O)c3cccc4ccccc34)c2c1 [Example 125]	11 to 25 nM
CNCCc1cccc2c(S(=O)(=O)c3ccccc3)n[nH]c12 [Example 173, N-Methyl-N-{2-[3-(phenylsulfonyl)-1H-indazol-7-yl]ethyl}amine trifluoroacetate]	0.01 to 10 nM
CCCCNCCOc1ccc2[nH]nc(S(=O)(=O)c3ccccc3)c2c1 [Example 7, [2-(3-Benzenesulfonyl-1H-indazol-5-yloxy)-ethyl]-butyl-amine]	26 to 35 nM
CNCCOc1ccc2c(S(=O)(=O)c3cccc4ccccc34)n[nH]c2c1 [Example 147, N-Methyl-2-{[3-(1-naphthylsulfonyl)-1H-indazol-6-yl]oxy}ethanamine Hydrochloride]	11 to 25 nM
CN(C)CCOc1cc(F)cc2c(S(=O)(=O)c3cccc4ccccc34)n[nH]c12 [Example 115]	11 to 25 nM
O=S(=O)(c1cccc2ccccc12)c1n[nH]c2ccc(OCCNC3CC3)cc12 [Example 36, Cyclopropyl-{2-[3-(naphthalene-1-sulfonyl)-1H-indazol-5-yloxy]-ethyl}-amine]	0.01 to 10 nM
CCN(CC)CCOc1cccc2c(S(=O)(=O)c3cccc4ccccc34)nn(C)c12 [Example 97]	0.01 to 10 nM
CN(C)CCOc1cc(F)cc2c(S(=O)(=O)c3cccc4ccccc34)nn(Cc3cccc(Cl)c3)c12 [Example 109]	11 to 25 nM
CCN(CC)CCOc1ccc2[nH]nc(S(=O)(=O)c3cccc4ccccc34)c2c1 [Example 33, Diethyl-{2-[3-(naphthalene-1-sulfonyl)-1H-indazol-5-yloxy]-ethyl}-amine]	0.01 to 10 nM
O=S(=O)(c1cccc2ccccc12)c1n[nH]c2c(OCCN3CCCC3)cc(F)cc12 [Example 118]	0.01 to 10 nM

Structure (SMILES)	Ki
NCCNCc1ccc2[nH]nc(S(=O)(=O)c3cccc4ccccc34)c2c1 [Example 155, N{[3-(1-Naphthylsulfonyl)-1H-indazol-5yl]methyl}ethane-1.2-diamine]	11 to 25 nM
NCCOc1ccc2[nH]nc(S(=O)(=O)c3cccc4ccccc34)c2c1 [Example 30, 2-[3-(Naphthalene-1-sulfonyl)-1H-indazol-5-yloxy]-ethylamine]	0.01 to 10 nM
NCCOc1cc(F)cc2c(S(=O)(=O)c3ccccc3)n[nH]c12 [Example 140]	0.01 to 10 nM
NCCOc1cccc2c(S(=O)(=O)c3cccc4ccccc34)nn(Cc3cccc(Cl)c3)c12 [Example 69, (2-{[1-(3-Chlorobenzyl)-3-(1-naphthylsulfonyl)-1-H-indazol-7-yl]oxy}ethyl) amine]	26 to 35 nM
CCNCCOc1ccc2c(c1)c(S(=O)(=O)c1cccc3ccccc13)nn2C [Example 44, Ethyl-{2-[1-methyl-3-(naphthalene-1-sulfonyl)-1H-indazol-5-yloxy]-ethyl}-amine]	0.01 to 10 nM
CN(C)CCC(=O)Nc1cccc2c(S(=O)(=O)c3cccc4ccccc34)n[nH]c12 [Example 162, 3-Dimethylamino-N-[3-(naphthalene-1-sulfonyl)-1H-indazol-7-yl]-propionamide hydrochloride]	0.01 to 10 nM
CN(C)CCC(=O)Nc1ccc2c(S(=O)(=O)c3cccc4ccccc34)n[nH]c2c1 [Example 168, 3-Dimethylamino-N-[3-(naphthalene-1-sulfonyl)-1H-indazol-6-yl]-propionamide hydrochloride]	36 to 45 nM
CNCCOc1ccc2c(c1)c(S(=O)(=O)c1cccc3ccccc13)nn2Cc1ccccc1 [Example 48, {2-[1-Benzyl-3-(naphthalene-1-sulfonyl)-1H-indazol-5-yloxy]-ethyl}-methyl-amine]	26 to 35 nM
O=C(CCN1CCCCC1)Nc1ccc2c(S(=O)(=O)c3cccc4ccccc34)n[nH]c2c1 [Example 167, N-[3-(Naphthalene-1-sulfonyl)-1H-indazol-6-yl]-3-piperidin-1-yl-propionamide hydrochloride]	11 to 25 nM
CC(C)NCCOc1ccc2c(c1)c(S(=O)(=O)c1cccc3ccccc13)nn2Cc1cccc(Cl)c1 [Example 57, {2-[1-(3-Chloro-benzyl)-3-(naphthalene-1-sulfonyl)-1H-indazol-5-yloxy]-ethyl}-isopropyl-amine]	36 to 45 nM
NCCOc1ccc2[nH]nc(S(=O)(=O)c3ccccc3)c2c1 [Example 13, 2-(3-Benzenesulfonyl-1H-indazol-5-yloxy)-ethylamine]	36 to 45 nM
CCN(CC)CCOc1ccc2c(c1)c(S(=O)(=O)c1cccc3ccccc13)nn2C [Example 43, Diethyl-{2-[1-methyl-3-(naphthalene-1-sulfonyl)-1H-indazol-5-yloxy]-ethyl}-amine]	0.01 to 10 nM
CCN(C)CCOc1ccc2c(c1)c(S(=O)(=O)c1cccc3ccccc13)nn2Cc1cccc(Cl)c1 [Example 55, {2-[1-(3-Chloro-benzyl)-3-(naphthalene-1-sulfonyl)-1H-indazol-5-yloxy]-ethyl}-ethyl-methyl-amine]	> 45 nM
CN(C)CCOc1ccc2c(c1)c(S(=O)(=O)c1cccc3ccccc13)nn2Cc1ccccc1 [Example 51, {2-[1-Benzyl-3-(naphthalene-1-sulfonyl)-1H-indazol-5-yloxy]-ethyl}-dimethyl-amine]	11 to 25 nM
CNCCCOc1cccc2c(S(=O)(=O)c3cccc4ccccc34)nn(Cc3cccc(Cl)c3)c12 [Example 128]	> 45 nM
CC1CN(Cc2ccc3[nH]nc(S(=O)(=O)c4cccc5ccccc45)c3c2)CC(C)N1 (stereo not shown) [Example 198]	0.01 to 10 nM
CCN(CC)CCCOc1cccc2c(S(=O)(=O)c3cccc4ccccc34)n[nH]c12 [Example 137]	26 to 35 nM
CCN(CC)CCCOc1cccc2c(S(=O)(=O)c3cccc4ccccc34)nn(Cc3cccc(Cl)c3)c12 [Example 131]	11 to 25 nM
CCN(C)CCOc1ccc2[nH]nc(S(=O)(=O)c3cccc4ccccc34)c2c1 [Example 29, Ethyl-methyl-{2-[3-(naphthalene-1-sulfonyl)-1H-indazol-5-yloxy]-ethyl}-amine]	0.01 to 10 nM
CCN(C)CCOc1ccc2[nH]nc(S(=O)(=O)c3ccccc3)c2c1 [Example 2, [2-(3-Benzenesulfonyl-1H-indazol-5-yloxy)-ethyl]-ethyl-methyl-amine]	> 45 nM
CCCCNCCOc1cccc2c(S(=O)(=O)c3cccc4ccccc34)nn(C)c12 [Example 98]	26 to 35 nM
O=S(=O)(c1ccccc1)c1nn(Cc2cccc(Cl)c2)c2c(OCCN3CCCCC3)cccc12 [Example 87]	> 45 nM
O=S(=O)(c1cccc2ccccc12)c1n[nH]c2c(OCCCN3CCCCC3)cccc12 [Example 138]	36 to 45 nM
NCCOc1cccc2c(S(=O)(=O)c3cccc4ccccc34)n[nH]c12 [Example 76, (2-{[3-(1-naphthylsulfonyl)-1-H-indazol-7-yl]oxy}ethyl)amine]	0.01 to 10 nM
O=S(=O)(c1ccccc1)c1n[nH]c2ccc(OCCN3CCCC3)cc12 [Example 11, 3-Benzenesulfonyl-5-(2-pyrrolidin-1-yl-ethoxy)-1H-indazole]	0.01 to 10 nM
